Reference: patent publication US20130059773A1, “COMPOUNDS FOR THE TREATMENT OF INFLAMMATION AND NEUTROPENIA” (priority 2010, published 2013)
Entries after “also recorded” stand apart in the source; their conditions may differ. Where a SMILES comes first, the peptide text is derived from it. The star is where a group is joined. Cbz = O=C(OCc1ccccc1)*

Experiments:
Assay type in all cases: cell-based, human
neutrophils [1] = assay: Neutrophil apoptosis/survival by phosphatidylserine externalization after annexin-V and 7-AAD labeling; conditions: for Effect of proteasome inhibitors on neutrophil death: neutrophils 15 h at 37° C.
Procedure: Analysis of apoptosis. Neutrophil apoptosis was triggered by incubating neutrophils at 37° C. alone (constitutive apoptosis) or with anti-Fas mAb (10 ng/ml; Beckman-Coulter) or gliotoxin ([…]; Sigma) (Ward et al. 1999, J. Biol. Chem. 274:4309-4318) for the indicated times. Neutrophil apoptosis was evaluated by phosphatidylserine externalization after annexin-V and 7-AAD labeling (Kantari et al. 2007, Blood 110:4086-4095); mitochondrial depolarization after DiOC6 labeling (Moriceau et al. 2009, J. Immuno1.182:7254-7263); caspase-3 and caspase-8 activities measured by spectrophotometry (Biovision) in neutrophil lysates. In DMF-differentiated-PLB985 cells, apoptosis was triggered by gliotoxin or by rTRAIL (10 ng/ml; RD System) (Yin et al. 2005, Int. J. Biochem. Cell Biol. 37:1696-1708) and caspase-8 and caspase-9 activities were determined after gating on CD11b^+ cells using the Caspase-Glow® assay (Promega). Apoptosis-induced chromatin condensation and DNA fragmentation were assessed, respectively, after DNA staining with the blue fluorescent dye Hoechst (5 mg/ml) and propidium-iodide staining (Goepel et al. 2004, J. Leukoc. Biol. 75:836-843). Carboxyp21 ([…], SEQ ID NO: 24) corresponding to the p21 carboxy-terminus sequence (residues 141-160) and containing a RYIRS carboxy-terminal extension to facilitate its cell entry was synthesized and purified (Genecust). A modified peptide in which the charged amino acids responsible for its binding to PCNA have been changed according to dynamic simulation studies ([…], SEQ ID NO: 25) served as control. The effect of PS-341 (LC Laboratories) and MG132 were tested on neutrophil apoptosis and PCNA expression as indicated.

PCNA = PCNA expression in neutrophils by Western blot; conditions: for Effect of proteasome inhibitors on apoptosis-induced PCNA diminution: neutrophils 15 h at 37° C.
Procedure: Western blot analysis and co-immunoprecipitation experiments. Neutrophils were sonicated and cytosolic proteins were analyzed using either the PC10 mAb or the Ab5 pAb anti-PCNA according to standard immunoblot procedures (Moriceau et al. 2009, J. Immunol. 182:7254-7263). Co-immunoprecipitation experiments were performed using neutrophil cytosols obtained by cavitation (Witko-Sarsat et al. 1999, Blood 94:2487-2496). Cytosol ([…]) was mixed with […] of protein G and Ab5 pAb and incubated for 30 min at 4° C. under shaking. The sample was loaded onto a column containing Sepharose-coated magnetic beads (Milteny), washed with a stringent washing buffer (50 mM Tris, 500 mM NaCl, 1% NP-40, 0.5% Triton X-100). The column was washed twice with this buffer, twice with the same buffer except that the NaCl was 300 mM and, finally, 5 times with a hyposaline buffer (20 mM Tris pH 7.5). The sample was eluted from the column with […] 5× sample buffer and analyzed by Western blotting using different mAb to potential partners. PCNA was detected on the Western blot with the PC10 mAb and procaspases were detected with either anti-procaspase-8 (Calbiochem) mAb or mouse anti-procaspase-10 (Santa Cruz) or anti-procaspase-9 (Santa Cruz) or anti-procaspase-3 (Santa Cruz) mAbs, followed by horseradish peroxidase-conjugated anti-mouse IgG (Nordic Immunology diluted 1:5000), using the SuperSignal West Pico detection kit (Pierce).

neutrophils [2] = assay: Effects of the peptides on neutrophil apoptosis (annexin V / 7-AAD flow cytometry); conditions: for Early Apoptosis, Mean / Late Apoptosis, Mean / Total Apoptosis, Mean: peptide concentration = 200 μM, 16 h at 37° C.; for Early Apoptosis, Mean: percentage annexin-V positive and 7-AAD negative; for Late Apoptosis, Mean: percentage annexin-V positive and 7-AAD positive; for Total Apoptosis, Mean: percentage of cells either 7-AAD or annexin-V-positive; for Early Apoptosis / Late Apoptosis / Total Apoptosis: peptide concentration = 500 μM
Procedure: Effects of the peptides on neutrophil apoptosis. Neutrophils were isolated from the blood of healthy volunteers using polymorphoprep (Witko-Sarsat et al. 1999; Blood 94:2487-96). Physiological apoptosis of these neutrophils was then activated by incubating them at 37° C. during 16 h in RPMI culture medium complemented with 10% serum. Under these conditions, neutrophils undergo a spontaneous apoptosis which can be evaluated by measuring the phosphatidylserine externalization (Kantari et al. 2007; Blood 110:4086-95; Moriceau et al. 2009; J Immunol 182:7254-63). Phosphatidylserine was stained using a fluorochrome-coupled annexin V allowing detection of apoptotic neutrophils by flow cytometry using a Facscan (Beckton Dickinson). Neutrophils stained with annexin V express the phosphatidylserine and are recognized and phagocytosed by macrophages. Furthermore, a secondary staining with the 7AAD intercalating agent was used to indicate late apoptosis (Durant et al. 2004; J Leukocyte Biol 75:87-98). Thus, total apoptosis is measured by the percentage of cells being either 7-AAD or annexin-V-positive (the rest of the cells being considered as viable). Early apoptosis is measured by the percentages of neutrophils being both annexin-V positive and 7-AAD negative. Late apoptosis is measured by the percentages of neutrophils being both annexin-V positive and 7-AAD positive. The necrotic cells being 7AAD positive are excluded from the analysis on the basis of the data of size/granulometry by flow cytometry analysis. […]
The peptides were added to the neutrophil cells and their effect on cell apoptosis was analyzed by measuring the phosphatidylserine externalization. Phosphatidylserine was stained using a fluorochrome-coupled annexin V allowing detection of apoptotic neutrophils by flow cytometry. Neutrophils stained with annexin V express the phosphatidylserine and are recognized and phagocytosed by macrophages. Furthermore, a secondary staining with the 7AAD intercalating agent was used to indicate late apoptosis, allowing distinction between early and late apoptosis.

neutrophils [3] = assay: Neutrophil apoptosis by mitochondrial depolarization after DiOC6 labeling; parameters: dose or concentration left out as unconfirmed; conditions: 6 h at 37° C., peptide
Procedure: Analysis of apoptosis. Neutrophil apoptosis was triggered by incubating neutrophils at 37° C. alone (constitutive apoptosis) or with anti-Fas mAb (10 ng/ml; Beckman-Coulter) or gliotoxin ([…]; Sigma) (Ward et al. 1999, J. Biol. Chem. 274:4309-4318) for the indicated times. Neutrophil apoptosis was evaluated by phosphatidylserine externalization after annexin-V and 7-AAD labeling (Kantari et al. 2007, Blood 110:4086-4095); mitochondrial depolarization after DiOC6 labeling (Moriceau et al. 2009, J. Immuno1.182:7254-7263); caspase-3 and caspase-8 activities measured by spectrophotometry (Biovision) in neutrophil lysates. In DMF-differentiated-PLB985 cells, apoptosis was triggered by gliotoxin or by rTRAIL (10 ng/ml; RD System) (Yin et al. 2005, Int. J. Biochem. Cell Biol. 37:1696-1708) and caspase-8 and caspase-9 activities were determined after gating on CD11b^+ cells using the Caspase-Glow® assay (Promega). Apoptosis-induced chromatin condensation and DNA fragmentation were assessed, respectively, after DNA staining with the blue fluorescent dye Hoechst (5 mg/ml) and propidium-iodide staining (Goepel et al. 2004, J. Leukoc. Biol. 75:836-843). Carboxyp21 ([…], SEQ ID NO: 24) corresponding to the p21 carboxy-terminus sequence (residues 141-160) and containing a RYIRS carboxy-terminal extension to facilitate its cell entry was synthesized and purified (Genecust). […]

## CC(C)C[C@@H](C=O)NC(=O)[C@H](CC(C)C)NC(=O)[C@H](CC(C)C)NC(=O)OCc1ccccc1 [MG132, reference compound] (Cbz-Leu-Leu-Leu-aldehyde)
Neutrophils [1]
  Effect of proteasome inhibitors on neutrophil death: significantly inhibited neutrophil death
PCNA
  Effect of proteasome inhibitors on apoptosis-induced PCNA diminution: reversed the apoptosis-induced PCNA diminution

## CC(C)C[C@H](NC(=O)[C@H](Cc1ccccc1)NC(=O)c1cnccn1)B(O)O [PS-341, reference compound]
Neutrophils [1]
  Effect of proteasome inhibitors on neutrophil death: significantly inhibited neutrophil death
PCNA; 6 h at 37° C., PS-341 (1 mM)
  Effect on PCNA degradation after incubation with anti-Fas or gliotoxin: reversed PCNA degradation
PCNA
  Effect of proteasome inhibitors on apoptosis-induced PCNA diminution: reversed the apoptosis-induced PCNA diminution

## APNQEKVSDYEMKLMRYIRS [peptide 1]
Neutrophils [2]
  Early Apoptosis, Mean: 62.52
  Late Apoptosis, Mean: 11.47
  Total Apoptosis, Mean: 73.67
Neutrophils [2]; Table V (peptides 1-4)
  Early Apoptosis: 65.06
  Late Apoptosis: 6.62
  Total Apoptosis: 68.74

## KDGVKFRYIRS [peptide 5]
Neutrophils [2]
  Early Apoptosis, Mean: 62.44
  Late Apoptosis, Mean: 12.36
  Total Apoptosis, Mean: 74.36
Neutrophils [2]; Table VI (peptides 5-9)
  Early Apoptosis: 75.21
  Late Apoptosis: 5.39
  Total Apoptosis: 77.67

## KRRQTGETDFDHAKAALIFSRYIRS [modified carboxy-21 peptide, reference compound]
Neutrophils [3]
  Apoptotic neutrophils as cells with depolarized mitochondria after DiOC6 labeling: no such activity was observed

## KRRQTSMTDFYHSKRRLIFSRYIRS [carboxyp21]
Neutrophils [3]
  Apoptotic neutrophils as cells with depolarized mitochondria after DiOC6 labeling: triggered neutrophil apoptosis
Neutrophils [1]; 6 h at 37° C., 50 mM peptide
  Cells with externalized phosphatidylserine after annexin-V labeling: significantly increased percentage of cells with externalized phosphatidylserine
Neutrophils [1]; G-CSF 1000 U/ml, carboxyp21 50 μM, 15 h
  Effect on G-CSF-induced neutrophil survival: significantly inhibited G-CSF-induced neutrophil survival
PCNA; 3 h, increasing carboxyp21 concentrations
  PCNA expression in neutrophils exposed to increasing peptide concentrations: dose-dependent decrease of PCNA expression

## MKLMDLDVEQLGIPEQEYSRYIRS [peptide 3]
Neutrophils [2]
  Pro- or anti-apoptotic activity on neutrophils, conclusion in words: exhibit a pro-apoptotic activity on neutrophils
  Early Apoptosis, Mean: 63.00
  Late Apoptosis, Mean: 13.27
  Total Apoptosis, Mean: 76.20
Neutrophils [2]; 500 μM
  Effect on annexin V staining (neutrophil apoptosis), in words: induced an increase of the annexin V staining
Neutrophils [2]; Table V (peptides 1-4)
  Early Apoptosis: 68.05
  Late Apoptosis: 12.63
  Total Apoptosis: 78.56

## MSADVPLRYIRS [peptide 7]
Neutrophils [2]
  Early Apoptosis, Mean: 62.60
  Late Apoptosis, Mean: 12.30
  Total Apoptosis, Mean: 74.40
Neutrophils [2]; Table VI (peptides 5-9)
  Early Apoptosis: 66.26
  Late Apoptosis: 2.85
  Total Apoptosis: 64.85

## SQTSNVDKEEEAVRYIRS [peptide 6]
Neutrophils [2]
  Early Apoptosis, Mean: 62.91
  Late Apoptosis, Mean: 13.11
  Total Apoptosis, Mean: 76.02
Neutrophils [2]; Table VI (peptides 5-9)
  Early Apoptosis: 66.43
  Late Apoptosis: 5.2
  Total Apoptosis: 67.42

## YGRKKRRQRRRAPNQEKVSDYEMKLM [peptide 2]
Neutrophils [2]
  Early Apoptosis, Mean: 52.29
  Late Apoptosis, Mean: 17.38
  Total Apoptosis, Mean: 69.33
Neutrophils [2]; Table V (peptides 1-4)
  Early Apoptosis: 46.92
  Late Apoptosis: 23.97
  Total Apoptosis: 68.08

## YGRKKRRQRRRMKLMDLDVEQLGIPEQEYS [peptide 4]
Neutrophils [2]
  Pro- or anti-apoptotic activity on neutrophils, conclusion in words: exhibit a pro-apoptotic activity on neutrophils
  Early Apoptosis, Mean: 62.34
  Late Apoptosis, Mean: 27.88
  Total Apoptosis, Mean: 89.83
Neutrophils [2]; 200 μM
  Effect on annexin V staining (neutrophil apoptosis), in words: induced an increase of the annexin V staining
Neutrophils [2]; 200 μM, Table IV
  Pro-apoptotic activity on late apoptosis, in words: particularly obvious on late apoptosis
Neutrophils [2]; Table V (peptides 1-4)
  Early Apoptosis: 53.11
  Late Apoptosis: 33.74
  Total Apoptosis: 82.84

## YGRKKRRQRRRYYLAPKIEDEEGS [peptide 9]
Neutrophils [2]
  Pro- or anti-apoptotic activity on neutrophils, conclusion in words: capable of preventing neutrophil apoptosis
  Early Apoptosis, Mean: 50.03
  Late Apoptosis, Mean: 23.90
  Total Apoptosis, Mean: 73.43
Neutrophils [2]; Table VI (peptides 5-9)
  Early Apoptosis: 48.44
  Late Apoptosis: 26.32
  Total Apoptosis: 71.84

## YYLAPKIEDEEGSRYIRS [peptide 8]
Neutrophils [2]
  Pro- or anti-apoptotic activity on neutrophils, conclusion in words: significant anti-apoptotic activity; also recorded: capable of preventing neutrophil apoptosis
  Early Apoptosis, Mean: 40.67
  Late Apoptosis, Mean: 6.23
  Total Apoptosis, Mean: 46.43
Neutrophils [2]; Table VI (peptides 5-9)
  Early Apoptosis: 48.94
  Late Apoptosis: 8.99
  Total Apoptosis: 48.77

## interferon-g: cytokine that prolongs neutrophil survival
PCNA
  Effect on PCNA degradation in neutrophils: prevented PCNA degradation
